What was measured:
Tubulin [1] = conditions: reported by Shintani et al. 1997; cited from earlier work
microtubules [2] = assay: Competitive binding of paclitaxel and TH-237A to microtubules; conditions: addition of 40 μM Taxol
Protocol: Competitive binding of paclitaxel and TH-237A—Microtubules were formed from MTP (2 mg/ml) in the presence of 0.5 mM GTP. […] […] After 10 minutes at 37° C., the microtubules were collected by centrifugation and dissolved in 0.1 ml of 0.1 M NaOH. Protein and radioactivity determinations of the dissolved microtubules were performed.

in vitro = conditions: bovine, pH 7.4
Protocol: The BBMECs were grown on 0.4 μm polycarbonate membranes. […] Transport studies were performed in pH 7.4 standard buffer solutions, consisting of either Hank's balanced salt solution (HBSS) or phosphate buffered saline (PBS) supplemented with 0.63 mM CaCl2, 0.74 mM MgSO4, 5.3 mM glucose and 0.1 mM ascorbic acid (PBSA). Briefly, all studies were performed in 3 ml of PBSA in each donor and receiver chamber of the side-by-side diffusion chambers and stirred at 600 rpm at 37° C. The cells were allowed to equilibrate in PBSA for 30 minutes prior to each experiment and oriented such that apical or blood side of the cells face the donor chamber and the basolateral or brain side of the cells adhere to the polycarbonate membranes and face the receiver chamber of the diffusion apparatus. At each time point, a 100 μl sample was taken from the receiver compartment and immediately replaced with an equal volume of PBSA. The transport studies were performed in the presence or absence of CsA (5-10 μM). Monolayers were checked for trypan blue exclusion after experiments as well to assess general cell viability. The permeability of all monolayers used in these experiments was monitored for [^14C] sucrose leakage as a measure of potential TH-237A-induced loss of integrity. The radioactivity was quantified using liquid scintillation spectrometry.

microtubules [3] = assay: Cold stability of microtubules; type: biochemical; conditions: 25 μM compound, on ice 15 minutes
Protocol: In another experiment, the cold stability of microtubles was investigated. Microtubules were formed from MAP-free tubulin (2 mg/ml) and MTP (2 mg/ml) at 37° C. A sample was centrifuged at 50,000×g to determine the amount of polymer formed. To three other samples DMSO, 20 μM paclitaxel or 400 μM TH-237A was added, and the samples were placed on ice for 15 minutes before centrifuging at 4° C. Pellets were dissolved in 0.1 ml of 0.1 M NaOH and protein determinations were made on the supernatants and pellets. Cold-induced depolymerization leads to an increase in the supernatant protein concentration.

Tubulin [4] = assay: Tubulin assembly centrifugation assay; type: biochemical; conditions: 1.0 μM compound
Protocol: In this example, the mechanism of TH-237A's neuroprotective effects was investigated. In a first experiment, the microtubule-stabilizing ability of TH-237A was investigated using a tubulin assembly centrifugation assay. Tubulin (1.0 mg/ml), free of microtubule-associated proteins (“MAPs”), was incubated in PEM buffer (0.1 M Pipes, 1 mM EGTA, 1 mM MgSO4, pH 6.9), 4% DMSO, various concentrations of paclitaxel or TH-237A, with or without 0.5 mM GTP, in a total volume of 0.1 ml for 15 minutes at 37° C. Samples were centrifuged at 50,000×g for 4 minutes in a Beckman TL-100 ultracentrifuge. Protein determinations were performed on the supernatants and the amount of polymer formed was calculated from the difference between the starting concentration and the supernatant concentration. The maximum concentration of polymer was taken to be that formed at 25 μM paclitaxel. An experiment was also done using a tubulin preparation containing microtubule-associated proteins (“MTP”) at a protein concentration of 2 mg/ml without GTP.

cellular microtubules = assay: Immunostaining of cellular microtubules; type: cell-based; conditions: 1 and 10 μM
Protocol: Immunostaining of cellular microtubules—Cells were grown in monolayer on sterile slide cover slips in a 6-well plate and treated with paclitaxel or TH-237A for different periods of time. The cover slips were washed with phosphate-buffered saline and the cells fixed by treatment with 95% EtOH at −20° C. for 30 minutes. The cover slips were placed in a humidified chamber and treated with the primary antibody (a mouse anti-β-tubulin monoclonal antibody) for 2 hours to overnight at room temperature. This was followed by washing with phosphate-buffered saline and treatment with the secondary antibody (FITC goat anti-mouse) for 1 hour at room temperature. Cover slips were examined on a Nikon Optiphot fluorescence microscope.

displacement of bound labeled TH-237A (100 μM) from microtubules (microtubules [2]) | Papp (in vitro) | SMILES | stimulation of tubulin polymerization relative to paclitaxel (Tubulin [1]) | cold-induced depolymerization of microtubules prevented (microtubules [3]) | % of tubulin polymerized (Tubulin [4]) | polymerization of the microtubules in situ in the cells (cellular microtubules)
 |  | OCC12CO[C@H](c3ccc(F)cc3)N1[C@@H](c1ccc(F)cc1)OC2 [GS-164, (3R,5R)-(3,5-bis(4-fluorophenyl)tetrahydro-1H-oxazolo[3,4-c]oxazol-7a-yl)methanol] | one-tenth |  |  | 
about 5% | 5 ×10⁻⁶ cm/s | CC(=O)O[C@H]1C(=O)[C@@]2(C)[C@H]([C@H](OC(=O)c3ccccc3)[C@]3(O)C[C@H](OC(=O)[C@H](O)[C@@H](NC(=O)c4ccccc4)c4ccccc4)C(C)=C1C3(C)C)[C@]1(OC(C)=O)CO[C@@H]1C[C@@H]2O [Taxol, Paclitaxel] |  | ~100% | 75% | clearly evident
